Legend:
Assay type in all cases: cell-based
[1] = target: T1, hTRPC6 (Homo sapiens, UniProt Q9Y210); assay: fura-2 intracellular calcium assay, OAG-activated hTRPC6 transfected in HEK […] cells
T1 construct: gene TRPC6
T1 sequence (Q9Y210 1-931): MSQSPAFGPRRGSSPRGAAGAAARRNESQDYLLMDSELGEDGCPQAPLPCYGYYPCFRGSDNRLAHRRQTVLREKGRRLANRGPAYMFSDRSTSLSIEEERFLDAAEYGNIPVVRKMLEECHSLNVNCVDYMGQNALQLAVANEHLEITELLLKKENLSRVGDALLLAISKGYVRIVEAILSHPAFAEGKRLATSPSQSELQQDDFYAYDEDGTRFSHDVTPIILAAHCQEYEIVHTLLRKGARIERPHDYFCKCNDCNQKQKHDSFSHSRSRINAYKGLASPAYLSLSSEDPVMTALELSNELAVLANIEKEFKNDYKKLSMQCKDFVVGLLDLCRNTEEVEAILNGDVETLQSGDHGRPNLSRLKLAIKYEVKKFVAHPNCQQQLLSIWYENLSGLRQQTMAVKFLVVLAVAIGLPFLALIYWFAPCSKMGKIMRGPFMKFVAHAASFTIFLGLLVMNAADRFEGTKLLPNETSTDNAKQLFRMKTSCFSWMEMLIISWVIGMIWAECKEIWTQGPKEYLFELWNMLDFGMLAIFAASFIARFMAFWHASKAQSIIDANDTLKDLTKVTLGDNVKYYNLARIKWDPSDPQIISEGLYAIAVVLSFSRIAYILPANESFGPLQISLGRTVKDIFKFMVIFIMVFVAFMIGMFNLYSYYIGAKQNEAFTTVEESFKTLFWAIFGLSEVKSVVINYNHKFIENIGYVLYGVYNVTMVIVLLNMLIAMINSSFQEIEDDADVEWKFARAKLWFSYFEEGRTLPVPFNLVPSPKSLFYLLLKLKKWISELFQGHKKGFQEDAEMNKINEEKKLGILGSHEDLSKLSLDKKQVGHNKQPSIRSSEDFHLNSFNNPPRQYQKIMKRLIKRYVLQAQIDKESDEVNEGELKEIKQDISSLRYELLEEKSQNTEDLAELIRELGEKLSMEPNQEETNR

[2] = target: T2, hTRPC4 (Homo sapiens, UniProt Q9UBN4); assay: fura-2 intracellular calcium assay, S1P-activated hTRPC4 overexpressed in HEK T-REx cells
T2 construct: gene TRPC4
T2 sequence (Q9UBN4 1-977): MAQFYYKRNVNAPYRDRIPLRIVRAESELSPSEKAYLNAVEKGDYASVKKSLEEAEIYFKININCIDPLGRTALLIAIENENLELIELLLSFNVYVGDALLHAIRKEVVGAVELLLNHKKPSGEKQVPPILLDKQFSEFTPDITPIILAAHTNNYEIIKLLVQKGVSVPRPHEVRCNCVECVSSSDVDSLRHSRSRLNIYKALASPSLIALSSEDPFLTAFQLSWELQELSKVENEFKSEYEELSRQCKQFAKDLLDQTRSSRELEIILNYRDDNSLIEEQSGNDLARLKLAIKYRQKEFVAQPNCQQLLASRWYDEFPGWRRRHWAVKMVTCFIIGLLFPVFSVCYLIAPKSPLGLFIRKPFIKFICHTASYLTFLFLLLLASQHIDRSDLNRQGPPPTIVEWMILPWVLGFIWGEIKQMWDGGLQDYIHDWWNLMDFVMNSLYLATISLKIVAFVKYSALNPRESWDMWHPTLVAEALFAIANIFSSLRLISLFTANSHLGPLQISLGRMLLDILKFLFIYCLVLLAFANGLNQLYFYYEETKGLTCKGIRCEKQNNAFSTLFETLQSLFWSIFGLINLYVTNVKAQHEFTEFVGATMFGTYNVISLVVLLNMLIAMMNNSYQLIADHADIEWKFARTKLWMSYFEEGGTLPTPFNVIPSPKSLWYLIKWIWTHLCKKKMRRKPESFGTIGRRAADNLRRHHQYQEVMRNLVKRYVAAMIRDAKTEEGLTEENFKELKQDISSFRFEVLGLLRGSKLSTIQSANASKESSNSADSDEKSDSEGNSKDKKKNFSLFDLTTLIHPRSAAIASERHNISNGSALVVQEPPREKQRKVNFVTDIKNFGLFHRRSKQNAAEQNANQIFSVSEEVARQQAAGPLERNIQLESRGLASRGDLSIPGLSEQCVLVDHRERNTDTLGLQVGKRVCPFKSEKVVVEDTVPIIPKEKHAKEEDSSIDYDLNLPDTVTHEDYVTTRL

[3] = target: T3, hTRPC3 (Homo sapiens, UniProt Q13507); assay: fura-2 intracellular calcium assay, OAG-activated hTRPC3 overexpressed in HEK T-REx cells
T3 construct: gene TRPC3
T3 sequence (Q13507 1-921): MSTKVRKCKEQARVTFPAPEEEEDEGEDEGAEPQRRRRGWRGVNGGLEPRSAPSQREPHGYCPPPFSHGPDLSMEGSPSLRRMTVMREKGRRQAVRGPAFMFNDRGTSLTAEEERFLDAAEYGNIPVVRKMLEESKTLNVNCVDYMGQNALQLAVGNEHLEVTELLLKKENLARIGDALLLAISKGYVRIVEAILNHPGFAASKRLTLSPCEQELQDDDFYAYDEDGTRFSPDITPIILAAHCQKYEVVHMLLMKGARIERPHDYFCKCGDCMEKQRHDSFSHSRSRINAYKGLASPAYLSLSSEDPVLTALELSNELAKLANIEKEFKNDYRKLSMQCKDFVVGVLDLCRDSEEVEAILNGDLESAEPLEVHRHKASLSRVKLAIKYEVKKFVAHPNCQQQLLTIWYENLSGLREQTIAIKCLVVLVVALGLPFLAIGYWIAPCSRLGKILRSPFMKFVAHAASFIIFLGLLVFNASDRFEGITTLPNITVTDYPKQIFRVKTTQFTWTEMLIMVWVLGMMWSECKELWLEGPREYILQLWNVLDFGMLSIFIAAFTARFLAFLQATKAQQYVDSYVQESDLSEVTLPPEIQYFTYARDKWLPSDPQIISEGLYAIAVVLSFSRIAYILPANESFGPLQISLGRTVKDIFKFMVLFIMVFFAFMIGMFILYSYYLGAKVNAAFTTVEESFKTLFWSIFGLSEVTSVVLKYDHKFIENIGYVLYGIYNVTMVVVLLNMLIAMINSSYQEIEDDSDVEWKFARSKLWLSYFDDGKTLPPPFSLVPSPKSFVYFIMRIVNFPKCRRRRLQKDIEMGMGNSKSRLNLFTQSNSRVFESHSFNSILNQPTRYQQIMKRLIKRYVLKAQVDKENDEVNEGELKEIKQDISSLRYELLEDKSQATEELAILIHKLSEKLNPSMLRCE

[4] = target: T4, hTRPC5 (Homo sapiens, UniProt Q9UL62); assay: fura-2 intracellular calcium assay, S1P-activated hTRPC5 overexpressed in HEK T-REx cells
T4 construct: gene TRPC5
T4 sequence (Q9UL62 1-973): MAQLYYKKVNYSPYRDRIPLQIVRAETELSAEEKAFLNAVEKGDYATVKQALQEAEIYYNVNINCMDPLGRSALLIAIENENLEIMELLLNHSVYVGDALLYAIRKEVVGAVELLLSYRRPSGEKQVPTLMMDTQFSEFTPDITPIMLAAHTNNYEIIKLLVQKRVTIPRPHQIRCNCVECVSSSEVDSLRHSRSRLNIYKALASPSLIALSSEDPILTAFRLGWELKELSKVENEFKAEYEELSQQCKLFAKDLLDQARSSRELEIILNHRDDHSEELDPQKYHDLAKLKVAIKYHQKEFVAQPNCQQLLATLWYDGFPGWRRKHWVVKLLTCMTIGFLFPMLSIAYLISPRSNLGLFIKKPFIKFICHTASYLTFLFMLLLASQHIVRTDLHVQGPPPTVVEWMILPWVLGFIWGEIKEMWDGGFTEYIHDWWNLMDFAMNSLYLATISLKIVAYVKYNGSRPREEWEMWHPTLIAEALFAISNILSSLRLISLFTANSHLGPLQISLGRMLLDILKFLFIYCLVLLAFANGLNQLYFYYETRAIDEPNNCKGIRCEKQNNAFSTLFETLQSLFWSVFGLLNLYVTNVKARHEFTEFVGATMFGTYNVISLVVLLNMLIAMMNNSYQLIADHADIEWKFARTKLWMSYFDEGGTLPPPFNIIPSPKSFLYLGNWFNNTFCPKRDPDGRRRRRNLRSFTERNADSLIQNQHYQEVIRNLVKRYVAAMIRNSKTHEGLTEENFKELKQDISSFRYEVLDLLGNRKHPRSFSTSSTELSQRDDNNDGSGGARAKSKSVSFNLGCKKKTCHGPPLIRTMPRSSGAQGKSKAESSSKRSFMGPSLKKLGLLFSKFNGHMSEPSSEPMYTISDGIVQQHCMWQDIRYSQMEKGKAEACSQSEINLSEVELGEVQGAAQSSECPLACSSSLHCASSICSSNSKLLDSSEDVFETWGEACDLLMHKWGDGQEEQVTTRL
Description: fura-2 intracellular calcium assay, S1P-activated hTRPC5 overexpressed in HEK T-REx cells on hTRPC5 | S1P‐evoked calcium influx mediated by hTRPC4 and hTRPC5 were inhibited by schwarzinicine A

IC50 [1]: 7 µM
IC50 [2]: 17 µM
IC50 [3]: 3 µM
IC50 [4]: 19 µM
SMILES: COc1ccc(CCNC(CCc2ccc(OC)c(OC)c2)Cc2ccc(OC)c(OC)c2)cc1OC (racemic) [schwarzinicine A, N‐(3,4‐dimethoxyphenethyl)‐1,4‐bis(3,4‐dimethoxyphenyl)butan‐2‐amine]

Reference: PMC9544403, “Schwarzinicine A inhibits transient receptor potential canonical channels and exhibits overt vasorelaxation effects” (Phytotherapy Research, 2022)
